# Where a name gives a salt, the structure may show the parent alone.
# Target: h-Sortilin (Homo sapiens (Human), UniProt Q99523)
# Assay: Neurotensin (NTS) scintillation proximity assay (SPA): displacement of [3H]-neurotensin binding
# Conditions: 150 nM 6his-Sortilin, 5 nM [3H]-Neurotensin, average of at least 2 determinations
# Experimental: The exemplified compounds of the invention were tested in a Neurotensin (NTS) scintillation proximity assay (SPA). NTS, which is a 13 amino acid neuropeptide, is a sortilin ligand. The IC50 is a measure of the amount of the compound required to inhibit the binding of NTS to sortilin by 50%. […] Compound affinity was determined by measuring the displacement of [^3H]-neurotensin binding to h-Sortilin in SPA format. […] IC50 values were calculated by nonlinear regression using the sigmoid concentration-response (variable slope) using CDD Vault software. All values reported are average of at least 2 determinations.
# h-Sortilin, sequence (Q99523 78-831): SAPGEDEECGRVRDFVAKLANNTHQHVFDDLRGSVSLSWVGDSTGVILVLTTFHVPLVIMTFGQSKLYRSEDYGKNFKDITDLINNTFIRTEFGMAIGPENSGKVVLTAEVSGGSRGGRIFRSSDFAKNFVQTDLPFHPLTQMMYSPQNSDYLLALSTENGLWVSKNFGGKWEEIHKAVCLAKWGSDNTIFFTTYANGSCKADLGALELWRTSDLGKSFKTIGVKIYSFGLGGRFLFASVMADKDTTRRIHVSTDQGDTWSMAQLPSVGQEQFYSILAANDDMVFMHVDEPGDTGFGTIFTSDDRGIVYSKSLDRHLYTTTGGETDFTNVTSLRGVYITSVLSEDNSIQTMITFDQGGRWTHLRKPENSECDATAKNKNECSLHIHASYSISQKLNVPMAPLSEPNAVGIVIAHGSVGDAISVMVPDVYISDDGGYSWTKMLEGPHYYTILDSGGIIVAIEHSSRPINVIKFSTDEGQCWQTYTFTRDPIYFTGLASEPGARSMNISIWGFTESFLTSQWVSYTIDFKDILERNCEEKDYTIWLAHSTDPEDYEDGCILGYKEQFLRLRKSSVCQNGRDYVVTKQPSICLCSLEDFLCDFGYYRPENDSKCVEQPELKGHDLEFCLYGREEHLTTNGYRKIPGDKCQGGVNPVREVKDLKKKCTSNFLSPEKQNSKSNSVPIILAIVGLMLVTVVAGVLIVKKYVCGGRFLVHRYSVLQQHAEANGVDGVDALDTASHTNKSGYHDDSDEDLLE
IC50 [nM],SMILES,IC50 (HCl) [nM]
975,"CC(C)(C)CC[C@H](NCc1ccccc1OC(F)(F)F)C(=O)O [Example 10, (2S)-5,5-dimethyl-2-({[2-(trifluoromethoxy)phenyl]methyl}amino)hexanoic acid]",–
1610,"CC(C)(C)CC[C@H](N[C@@H](c1ccccc1)C(F)F)C(=O)O [Example 17, (2S)-2-{[(1S)-2,2-difluoro-1-phenylethyl]amino}-5,5-dimethylhexanoic acid]",–
740,"Cn1cnc2c(CN[C@@H](CCC(C)(C)C)C(=O)O)cccc21 [Example 138, (S)-5,5-dimethyl-2-(((1-methyl-1H-benzo[d]imidazol-4-yl)methyl)amino)hexanoic acid, Mesylic acid]",–
420,"CCn1ccc2c(CN[C@@H](CCC(C)(C)C)C(=O)O)cccc21 [Example 135, (2S)-2-{[(1-ethyl-1H-indol-4-yl)methyl]amino}-5,5-dimethylhexanoic acid]",–
1380,"CC(C)(C)CC[C@H](NCc1cccc(CO)c1)C(=O)O [Example 25, (2S)-2-({[3-(hydroxymethyl)phenyl]methyl}amino)-5,5-dimethylhexanoic acid]",–
570,"CC(=O)c1cccc(CN[C@@H](CCC(C)(C)C)C(=O)O)c1 [Example 139, (2S)-2-{[(3-acetylphenyl)methyl]amino}-5,5-dimethylhexanoic acid]",–
1600,"CC(C)(C)CC[C@H](NCc1ccc2ccccc2n1)C(=O)O [Example 36, (2S)-5,5-dimethyl-2-{[(quinolin-2-yl)methyl]amino}hexanoic acid]",–
–,"CC(N[C@@H](CCC(C)(C)C)C(=O)O)c1cncnc1 (stereo partly drawn) [Example 143, (2S)-5,5-dimethyl-2-((1-(pyrimidin-5-yl)ethyl)amino)hexanoic acid, HCl]",890
430,"CC(C)(C)CC[C@H](NCc1ccc2occc2c1)C(=O)O [Example 117, (2S)-2-{[(1-benzofuran-5-yl)methyl]amino}-5,5-dimethylhexanoic acid]",–
1050,COc1ccc2cc(CN[C@@H](CCC(C)(C)C)C(=O)O)ccc2c1 [Example 85],–
1630,Cc1cnccc1CN[C@@H](CCC(C)(C)C)C(=O)O [Example 93],–
270,"CC(C)(C)CC[C@H](NC(c1ccccc1)c1ccccc1)C(=O)O [Example 8, (S)-2-(benzhydrylamino)-5,5-dimethylhexanoic acid hydrochloride]",–
3310,Cn1ccc2ccc(CN[C@@H](CCC(C)(C)C)C(=O)O)cc21 [Example 67],–
370,"COc1ccc([C@H](C)N[C@@H](CCC(C)(C)C)C(=O)O)cc1OC [Example 108, (S)-2-(((S)-1-(3,4-dimethoxyphenyl)ethyl)amino)-5,5-dimethylhexanoic acid]",–
320,"CC(C)(C)CC[C@H](NCc1ccc2scnc2c1)C(=O)O [Example 51, (2S)-2-{[(1,3-benzothiazol-5-yl)methyl]amino}-5,5-dimethylhexanoic acid]",–
1130,"CC(C)(C)CC[C@H](NCc1cccnc1)C(=O)O [Example 71, (2S)-5,5-dimethyl-2-{[(pyridin-3-yl)methyl]amino}hexanoic acid]",–
870,"Cn1ncc2ccc(CN[C@@H](CCC(C)(C)C)C(=O)O)cc21 [Example 54, (2S)-5,5-dimethyl-2-{[(1-methyl-1H-indazol-6-yl)methyl]amino}hexanoic acid]",–
360,"CC(C)(C)CC[C@H](NCc1cccc2c1CCCC2)C(=O)O [Example 39, (2S)-5,5-dimethyl-2-{[(5,6,7,8-tetrahydronaphthalen-1-yl)methyl]amino}hexanoic acid]",–
470,"CC(C)(C)CC[C@H](NCc1cnc2[nH]ccc2c1)C(=O)O [Example 43, (2S)-5,5-dimethyl-2-[({1H-pyrrolo[2,3-b]pyridin-5-yl}methyl)amino]hexanoic acid]",–
–,"CC(N[C@@H](CCC(C)(C)C)C(=O)O)c1cncnc1 (stereo partly drawn) [Example 141, (2S)-5,5-dimethyl-2-((1-(pyrimidin-5-yl)ethyl)amino)hexanoic acid, HCl]",640
710,"COc1ccc(CN[C@@H](CCC(C)(C)C)C(=O)O)cc1F [Example 37, (2S)-2-{[(3-fluoro-4-methoxyphenyl)methyl]amino}-5,5-dimethylhexanoic acid]",–
950,"CC(C)(C)CC[C@H](NCc1cccc2ccncc12)C(=O)O [Example 7, (2S)-2-{[(isoquinolin-8-yl)methyl]amino}-5,5-dimethylhexanoic acid]",–
950,COc1ccc(CN[C@@H](CCC(C)(C)C)C(=O)O)c2ccccc12 [Example 79],–
610,"C[C@@H](N[C@@H](CCC(C)(C)C)C(=O)O)c1ccccc1 [Example 14, (S)-5,5-dimethyl-2-(((R)-1-phenylethyl)amino)hexanoic acid hydrochloride]",–
790,CC(C)(C)CC[C@H](NCc1cncc2ccccc12)C(=O)O [Example 80],–
390,"COc1ccc(CN[C@@H](CCC(C)(C)C)C(=O)O)cc1O [Example 91, (2S)-2-{[(3-hydroxy-4-methoxyphenyl)methyl]amino}-5,5-dimethylhexanoic acid]",–

IC50 [nM],SMILES,IC50 (HCl) [nM]
1320,"CC(C)(C)CC[C@H](NCc1cccc2[nH]ncc12)C(=O)O [Example 134, (2S)-2-{[(2H-indazol-4-yl)methyl]amino}-5,5-dimethylhexanoic acid]",–
790,COc1cncc(CN[C@@H](CCC(C)(C)C)C(=O)O)c1 [Example 86],–
1990,"COc1ccc2ccccc2c1CN[C@@H](CCC(C)(C)C)C(=O)O [Example 49, (2S)-2-{[(2-methoxynaphthalen-1-yl)methyl]amino}-5,5-dimethylhexanoic acid]",–
400,"CC(C)(C)CC[C@H](NCc1ccc2nccnc2c1)C(=O)O [Example 42, (2S)-5,5-dimethyl-2-{[(quinoxalin-6-yl)methyl]amino}hexanoic acid]",–
790,CC(C)(C)CC[C@H](NCc1cccc2cnccc12)C(=O)O [Example 81],–
660,"Cc1cc2cccc(CN[C@@H](CCC(C)(C)C)C(=O)O)c2cn1 [Example 4, (2S)-5,5-dimethyl-2-{[(3-methylisoquinolin-8-yl)methyl]amino}hexanoic acid]",–
850,"CC(C)(C)CC[C@H](NCc1ccnc2[nH]ccc12)C(=O)O [Example 44, (2S)-5,5-dimethyl-2-[({1H-pyrrolo[2,3-b]pyridin-4-yl}methyl)amino]hexanoic acid]",–
790,"CC(C)(C)CC[C@H](NCc1ccc(Cl)cc1)C(=O)O [Example 76, (2S)-2-{[(4-chlorophenyl)methyl]amino}-5,5-dimethylhexanoic acid]",–
700,"Cc1cccc(CN[C@@H](CCC(C)(C)C)C(=O)O)c1C [Example 83, (2S)-2-{[(2,3-dimethylphenyl)methyl]amino}-5,5-dimethylhexanoic acid]",–
790,"CC(C)(C)CC[C@H](NCc1ccnc(Cl)c1F)C(=O)O [Example 89, (2S)-2-{[(2-chloro-3-fluoropyridin-4-yl)methyl]amino}-5,5-dimethylhexanoic acid]",–
590,"CC(C)(C)CC[C@H](NCc1ccc2ncsc2c1)C(=O)O [Example 53, (2S)-2-{[(1,3-benzothiazol-6-yl)methyl]amino}-5,5-dimethylhexanoic acid]",–
1830,"CC(C)(C)CC[C@H](NCc1ccccc1F)C(=O)O [Example 11, (2S)-2-{[(2-fluorophenyl)methyl]amino}-5,5-dimethylhexanoic acid]",–
3480,"C[C@H](N[C@@H](CCC(C)(C)C)C(=O)O)c1ccccc1 [Example 15, (S)-5,5-dimethyl-2-(((S)-1-phenylethyl)amino)hexanoic acid hydrochloride]",–
1200,Cn1ccc2cccc(CN[C@@H](CCC(C)(C)C)C(=O)O)c21 [Example 68],–
820,"COc1ccc(CN[C@@H](CCC(C)(C)C)C(=O)O)cc1 [Example 133, (2S)-2-{[(4-methoxyphenyl)methyl]amino}-5,5-dimethylhexanoic acid]",–
1020,"CC(C)(C)CC[C@H](NCc1ccccc1C(F)(F)F)C(=O)O [Example 13, (2S)-5,5-dimethyl-2-({[2-(trifluoromethyl)phenyl]methyl}amino)hexanoic acid]",–
75,"Cc1cc(=O)oc2c(CN[C@@H](CCC(C)(C)C)C(=O)O)c(O)ccc12 [Example 1, (S)-2-(((7-hydroxy-4-methyl-2-oxo-2H-chromen-8-yl)methyl)amino)-5,5-dimethylhexanoic acid]",–
1490,"CC(C)(C)CC[C@H](NC1=Nc2ccccc2Oc2ccccc21)C(=O)O [Example 20, (2S)-5,5-dimethyl-2-({2-oxa-9-azatricyclo[9.4.0.0^3,8]pentadeca-1(11),3(8),4,6,9,12,14-heptaen-10-yl}amino)hexanoic acid]",–
1950,"CC(C)(C)CC[C@H](NCc1cccc2cccnc12)C(=O)O [Example 47, (2S)-5,5-dimethyl-2-{[(quinolin-8-yl)methyl]amino}hexanoic acid]",–
690,Cc1cncc(CN[C@@H](CCC(C)(C)C)C(=O)O)c1 [Example 95],–
> 9980,"CC(C)(C)CC[C@H](NCc1cccc2[nH]ccc12)C(=O)O [Example 62, (2S)-2-{[(1H-indol-4-yl)methyl]amino}-5,5-dimethylhexanoic acid]",–
2830,"Cn1ncc2c(CN[C@@H](CCC(C)(C)C)C(=O)O)cccc21 [Example 61, (2S)-5,5-dimethyl-2-{[(1-methyl-1H-indazol-4-yl)methyl]amino}hexanoic acid]",–
530,COc1cc(CN[C@@H](CCC(C)(C)C)C(=O)O)ccn1 [Example 87],–
880,Cc1cc(CN[C@@H](CCC(C)(C)C)C(=O)O)ccn1 [Example 132],–
1240,Cc1ccc(CN[C@@H](CCC(C)(C)C)C(=O)O)cn1 [Example 72],–

# Reference: patent US20250268854A1, “2-AMINO-5,5-DIMETHYLHEXANOIC ACID DERIVATIVES AS SORTILIN MODULATORS FOR USE IN THE TREATMENT OF DISEASE OF THE CENTRAL NERVOUS SYSTEM” (c/o Vesper Bio ApS, priority 2021, published 2025)
